Holding throughout (assay type): cell-based
In assay [1] the target is T1, CFTR ΔF508 mutant (Homo sapiens, UniProt P13569, DEL508-508).
T1 construct: expressed in transfected cells; host or cells: CFBE41o- (adenoviral transduction)
Put plainly: YFP-halide influx assay for the CFTR-ΔF508 mutation, PBS buffer (96 well). The following applies: CFBE41o- cells, forskolin 10.67 μM. In short, it runs like this:
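CFBE41o- cells were adenovirally transduced with CFTR ΔF508 and YFP H148Q/I152L, then incubated 24 h at 27 °C or with a CFTR modulator at 37 °C. I⁻-induced fluorescence quenching was recorded over 7 s after injection; response expressed as 1−F/F0, with EC50 from concentration plots.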

Assay [2] has as its target T1, CFTR ΔF508 mutant. Put plainly: YFP-halide influx assay for the CFTR-ΔF508 mutation, gluconate buffer. The following applies: CFBE41o- cells, forskolin 10.67 μM. The method in brief: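 CFBE41o- cells adenovirally transduced with CFTR ΔF508 and YFP H148Q/I152L, then held 24 h at 27 °C or treated with CFTR modulator 24 h at 37 °C. I− quenching recorded for 7 s after injection; activity as 1-F/F0, EC50 from concentration plot.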

Another assay concerns the target T2, CFTR G551D mutant (Homo sapiens, UniProt P13569, G551D).
T2 construct: expressed in transfected cells; host or cells: HEK293 (reverse transfection with plasmid)
Put plainly: YFP-halide influx assay for the CFTR-G551D mutation. The following applies: HEK293 cells, forskolin 10.67 μM. In short, it runs like this:
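HEK293 cells reverse-transfected with CFTR G551D and YFP H148Q/I152L/F47L halide sensor, expressed 24 h at 37 °C. Iodide-induced fluorescence quench recorded 7 s after I− injection; response = 1−F/F0, with EC50 from plot against compound concentration.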

Assay [3] addresses T1, CFTR ΔF508 mutant. The assay is described as follows: YFP-halide influx assay for the CFTR-ΔF508 mutation (384 well, FDSS/μCell). The settings on record: CFBE41o- cells, CFTR-ΔF508, 1×D-PBS, fluorescence after 36 seconds. In short, it runs like this:
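Potentiator read-out as 1−F/F0, F taken 36 s after iodide addition, EC50 fitted against compound concentration. Cells: CFBE41o- expressing ΔF508 CFTR plus halide-sensitive YFP via adenovirus, rescued by 27 °C for 24 h or 24 h modulator at 37 °C.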

Molecules are shown by their SMILES. pEC50: −log10 of the molar value.

T2 sequence (P13569 whole entry G551D): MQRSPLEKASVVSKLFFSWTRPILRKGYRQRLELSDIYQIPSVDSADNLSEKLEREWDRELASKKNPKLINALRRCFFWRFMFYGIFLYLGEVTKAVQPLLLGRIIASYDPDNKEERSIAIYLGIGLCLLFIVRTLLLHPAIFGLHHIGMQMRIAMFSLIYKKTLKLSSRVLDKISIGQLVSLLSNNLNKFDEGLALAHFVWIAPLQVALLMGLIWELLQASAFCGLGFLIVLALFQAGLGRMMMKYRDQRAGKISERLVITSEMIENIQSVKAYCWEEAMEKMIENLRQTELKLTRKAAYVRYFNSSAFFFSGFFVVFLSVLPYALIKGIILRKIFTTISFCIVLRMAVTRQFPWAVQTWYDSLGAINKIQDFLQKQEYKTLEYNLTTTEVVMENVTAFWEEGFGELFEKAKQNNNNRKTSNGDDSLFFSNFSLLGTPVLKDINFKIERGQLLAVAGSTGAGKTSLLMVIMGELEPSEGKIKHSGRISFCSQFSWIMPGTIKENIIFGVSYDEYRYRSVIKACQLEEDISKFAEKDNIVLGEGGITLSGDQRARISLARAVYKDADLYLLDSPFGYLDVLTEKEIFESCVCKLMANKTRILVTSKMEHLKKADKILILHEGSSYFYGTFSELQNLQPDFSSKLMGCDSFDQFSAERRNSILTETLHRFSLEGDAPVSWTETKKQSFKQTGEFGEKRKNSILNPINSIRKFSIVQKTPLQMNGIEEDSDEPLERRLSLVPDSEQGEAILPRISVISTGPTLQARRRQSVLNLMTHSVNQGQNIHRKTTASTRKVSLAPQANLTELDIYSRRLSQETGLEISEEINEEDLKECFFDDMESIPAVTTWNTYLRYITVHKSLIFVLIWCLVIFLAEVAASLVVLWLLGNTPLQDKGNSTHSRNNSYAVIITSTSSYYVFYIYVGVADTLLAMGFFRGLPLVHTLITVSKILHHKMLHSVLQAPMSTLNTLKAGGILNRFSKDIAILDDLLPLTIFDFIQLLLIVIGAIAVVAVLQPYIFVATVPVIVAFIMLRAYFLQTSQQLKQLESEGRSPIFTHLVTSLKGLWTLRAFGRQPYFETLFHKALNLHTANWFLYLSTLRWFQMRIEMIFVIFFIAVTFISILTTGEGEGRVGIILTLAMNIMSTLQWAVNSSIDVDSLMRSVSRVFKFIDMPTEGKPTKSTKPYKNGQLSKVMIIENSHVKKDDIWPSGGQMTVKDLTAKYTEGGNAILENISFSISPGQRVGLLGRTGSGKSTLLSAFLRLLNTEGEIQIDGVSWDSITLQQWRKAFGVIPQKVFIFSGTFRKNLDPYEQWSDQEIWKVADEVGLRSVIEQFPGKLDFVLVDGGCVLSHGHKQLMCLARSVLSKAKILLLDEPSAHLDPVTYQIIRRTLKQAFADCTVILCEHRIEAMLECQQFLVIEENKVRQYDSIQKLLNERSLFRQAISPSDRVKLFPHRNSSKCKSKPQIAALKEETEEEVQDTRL
T1 sequence (P13569 with tags, fused parts or gaps DEL508-508): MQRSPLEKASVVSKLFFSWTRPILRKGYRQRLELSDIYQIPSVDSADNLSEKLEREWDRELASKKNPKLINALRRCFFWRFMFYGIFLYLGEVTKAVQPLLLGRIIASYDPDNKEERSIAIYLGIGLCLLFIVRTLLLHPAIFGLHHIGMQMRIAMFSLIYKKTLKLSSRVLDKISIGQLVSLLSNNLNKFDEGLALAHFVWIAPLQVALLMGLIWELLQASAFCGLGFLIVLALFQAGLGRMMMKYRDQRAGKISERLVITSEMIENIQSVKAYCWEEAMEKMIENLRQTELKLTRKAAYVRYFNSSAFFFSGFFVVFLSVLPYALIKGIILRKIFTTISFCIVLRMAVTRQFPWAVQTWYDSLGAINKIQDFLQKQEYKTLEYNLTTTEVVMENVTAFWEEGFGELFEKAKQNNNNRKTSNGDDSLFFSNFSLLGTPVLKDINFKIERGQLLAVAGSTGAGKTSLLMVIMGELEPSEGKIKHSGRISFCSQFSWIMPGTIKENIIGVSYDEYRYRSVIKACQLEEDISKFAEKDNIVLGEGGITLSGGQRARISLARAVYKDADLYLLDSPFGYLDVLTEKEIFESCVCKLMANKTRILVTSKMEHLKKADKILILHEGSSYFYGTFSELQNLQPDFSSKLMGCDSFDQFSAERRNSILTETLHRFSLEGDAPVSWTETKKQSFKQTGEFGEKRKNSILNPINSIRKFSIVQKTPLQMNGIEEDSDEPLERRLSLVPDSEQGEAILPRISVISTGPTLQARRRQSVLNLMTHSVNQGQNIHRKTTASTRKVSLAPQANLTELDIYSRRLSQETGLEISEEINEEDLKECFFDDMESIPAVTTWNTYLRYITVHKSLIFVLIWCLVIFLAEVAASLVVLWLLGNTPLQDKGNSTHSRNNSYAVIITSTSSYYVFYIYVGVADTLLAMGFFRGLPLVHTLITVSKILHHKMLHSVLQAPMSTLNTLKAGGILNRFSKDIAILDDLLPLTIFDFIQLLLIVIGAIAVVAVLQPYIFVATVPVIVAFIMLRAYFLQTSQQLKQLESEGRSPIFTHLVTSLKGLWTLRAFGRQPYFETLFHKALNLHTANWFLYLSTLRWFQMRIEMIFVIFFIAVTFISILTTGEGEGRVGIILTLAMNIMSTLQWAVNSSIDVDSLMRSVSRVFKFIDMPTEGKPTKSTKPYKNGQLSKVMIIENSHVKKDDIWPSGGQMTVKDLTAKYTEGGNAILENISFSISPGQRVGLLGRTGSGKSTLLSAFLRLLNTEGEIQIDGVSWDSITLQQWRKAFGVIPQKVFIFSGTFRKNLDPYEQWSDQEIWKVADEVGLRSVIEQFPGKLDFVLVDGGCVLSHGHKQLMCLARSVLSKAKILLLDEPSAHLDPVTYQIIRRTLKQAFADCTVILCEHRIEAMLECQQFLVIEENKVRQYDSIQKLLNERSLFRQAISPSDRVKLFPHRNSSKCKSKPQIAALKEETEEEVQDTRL

Turning to `NC(=O)c1cc(S(=O)(=O)N2CCOCC2)sc1NC(=O)c1c(O)cc(F)cc1F` [Compound 212, 2-(2,4-difluoro-6-hydroxybenzamido)-5-(morpholinosulfonyl) thiophene-3-carboxamide], the pEC50 (commonly the EC50 on a negative log10 scale, so that one unit is a factor of ten) on CFTR ΔF508 mutant [1] is 7.15; at CFTR ΔF508 mutant [2], 6.74.
On to `CC(C)c1cc(C(=O)Nc2sc(S(=O)(=O)N3CCC(F)(F)CC3)cc2C(N)=O)c(O)c(C(C)C)c1` [Compound 215, 5-(4,4-difluoropiperidin-1-ylsulfonyl)-2-(2-hydroxy-3,5-diisopropylbenzamido) thiophene-3-carboxamide], for which the pEC50 on CFTR ΔF508 mutant [1] is 6.06; at CFTR ΔF508 mutant [2], 6.53.
For the compound `Cc1cccc(C(=O)Nc2sc(S(=O)(=O)N3CCOCC3)cc2C(N)=O)c1O` [Compound 216, 2-(2-hydroxy-3-methylbenzamido)-5-(morpholinosulfonyl) thiophene-3-carboxamide], the pEC50 at CFTR ΔF508 mutant [1] is 6.66; on CFTR ΔF508 mutant [2] it was 6.15.
With `CC(C)(CO)C(=O)Nc1sc(S(=O)(=O)N2CCC(F)(F)CC2)cc1C(N)=O` [Compound 217, 5-(4,4-difluoropiperidin-1-ylsulfonyl)-2-(3-hydroxy-2,2-dimethylpropanamido) thiophene-3-carboxamide], the values for the negative logarithm of the EC50 (pEC50) at CFTR ΔF508 mutant [1] and at CFTR ΔF508 mutant [2] were 6.78 and 6.71, respectively.
On to `CC(C)(O)C(=O)Nc1sc(S(C)(=O)=O)cc1C(N)=O` [Compound 219, 2-(2-hydroxy-2-methylpropanamido)-5-(methylsulfonyl) thiophene-3-carboxamide], for which the pEC50 at CFTR ΔF508 mutant [1] and at CFTR ΔF508 mutant [2] was less than 6.00 in each case.
In the case of `CC(C)(O)C(=O)Nc1sc(S(=O)(=O)c2cccc(OC(F)(F)F)c2)cc1C(N)=O` [Compound 269, 2-(2-hydroxy-2-methylpropanamido)-5-(3-(trifluoromethoxy)phenylsulfonyl) thiophene-3-carboxamide], the values for the pEC50 at CFTR G551D mutant, at CFTR ΔF508 mutant [1] and on CFTR ΔF508 mutant [3] were 6.03, 7.48 and 8.00, respectively.
Consider `NC(=O)c1cc(S(=O)(=O)c2ccc(F)cc2)sc1NC(=O)C1CCCC1O` (stereo not shown) [Compound 272, 5-(4-fluorophenylsulfonyl)-2-(2-hydroxycyclopentanecarboxamido) thiophene-3-carboxamide], for which the pEC50 is 6.11 at CFTR G551D mutant, 7.31 on CFTR ΔF508 mutant [1] and 6.99 at CFTR ΔF508 mutant [3].
For `CC(CO)C(=O)Nc1sc(S(=O)(=O)c2ccc(F)cc2)cc1C(N)=O` (stereo not shown) [Compound 273, 5-(4-fluorophenylsulfonyl)-2-(3-hydroxy-2-methylpropanamido) thiophene-3-carboxamide] the same measures were 5.51, 6.96 and 6.83.
Regarding `CC(C)Oc1ccc(S(=O)(=O)c2cc(C(N)=O)c(NC(=O)C(C)(C)O)s2)cc1` [Compound 279, 2-(2-hydroxy-2-methylpropanamido)-5-(4-isopropoxyphenylsulfonyl) thiophene-3-carboxamide], the pEC50 was 6.21 at CFTR G551D mutant, 7.26 at CFTR ΔF508 mutant [1] and 6.94 on CFTR ΔF508 mutant [3].
For `NC(=O)c1cc(S(=O)(=O)c2ccc(F)cc2)sc1NC(=O)C1CCCCC1O` (stereo not shown) [Compound 280, 5-(4-fluorophenylsulfonyl)-2-(2-hydroxycyclohexanecarboxamido) thiophene-3-carboxamide] the same measures were 5.78, 7.55 and 6.93.
Take `CC(C)Oc1cc(F)ccc1S(=O)(=O)c1cc(C(N)=O)c(NC(=O)C(C)(C)O)s1` [Compound 281, 5-(4-fluoro-2-isopropoxyphenylsulfonyl)-2-(2-hydroxy-2-methylpropanamido) thiophene-3-carboxamide]: the pEC50 is 5.81 at CFTR G551D mutant, 7.39 at CFTR ΔF508 mutant [1] and 6.87 on CFTR ΔF508 mutant [3].
For `CC(C)(O)C(=O)Nc1sc(S(=O)(=O)c2ccc(F)cc2OC(F)F)cc1C(N)=O` [Compound 283, 5-(2-(difluoromethoxy)-4-fluorophenylsulfonyl)-2-(2-hydroxy-2-methylpropanamido) thiophene-3-carboxamide] the same measures were 6.25, 7.32 and 7.16.
With `COc1ccc(S(=O)(=O)c2cc(C(N)=O)c(NC(=O)C(C)(C)O)s2)c(OC(F)F)c1` [Compound 284, 5-(2-(difluoromethoxy)-4-methoxyphenylsulfonyl)-2-(2-hydroxy-2-methylpropanamido) thiophene-3-carboxamide], the results for the pEC50 on CFTR G551D mutant, on CFTR ΔF508 mutant [1] and at CFTR ΔF508 mutant [3] were 6.10, 7.29 and 7.07, respectively.
With `CC(C)(O)C(=O)Nc1sc(S(=O)(=O)c2ccccc2C(F)(F)F)cc1C(N)=O` [Compound 289, 2-(2-hydroxy-2-methylpropanamido)-5-(2-(trifluoromethyl)phenylsulfonyl) thiophene-3-carboxamide], the pEC50 was 6.72 on CFTR G551D mutant, 7.51 at CFTR ΔF508 mutant [1] and 7.55 on CFTR ΔF508 mutant [3].
For `C[C@H](O)C(=O)Nc1sc(S(=O)(=O)c2ccc(F)cc2)cc1C(N)=O` [Compound 291, (S)-5-(4-fluorophenylsulfonyl)-2-(2-hydroxypropanamido) thiophene-3-carboxamide] the same measures were 5.82, 7.09 and 7.76.
`CN(C)c1cccc(S(=O)(=O)c2cc(C(N)=O)c(NC(=O)C(C)(C)O)s2)c1` [Compound 292, 5-(3-(dimethylamino)phenylsulfonyl)-2-(2-hydroxy-2-methylpropanamido) thiophene-3-carboxamide]: the figures for the pEC50 on CFTR G551D mutant, at CFTR ΔF508 mutant [1] and on CFTR ΔF508 mutant [3] were 5.64, 7.15 and 6.74, respectively.
The like results for `CC(C)c1ccccc1S(=O)(=O)c1cc(C(N)=O)c(NC(=O)C(C)(C)O)s1` [Compound 293, 2-(2-hydroxy-2-methylpropanamido)-5-(2-isopropylphenylsulfonyl) thiophene-3-carboxamide] were, in that order, 6.96, 7.82 and 8.12.
For `COc1ccc(F)cc1S(=O)(=O)c1cc(C(N)=O)c(NC(=O)C(C)(C)O)s1` [Compound 295, 5-(5-fluoro-2-methoxyphenylsulfonyl)-2-(2-hydroxy-2-methylpropanamido) thiophene-3-carboxamide] the same measures were 6.00, 7.02 and 7.45.
The like results for `CC(C)(O)C(=O)Nc1sc(S(=O)(=O)c2ccccc2CC(F)(F)F)cc1C(N)=O` [Compound 302, 2-(2-hydroxy-2-methylpropanamido)-5-(2-(2,2,2-trifluoroethyl)phenylsulfonyl) thiophene-3-carboxamide] were, in that order, 6.51, 7.95 and 8.09.
As to `CC(C)(O)C(=O)Nc1sc(S(=O)(=O)c2cc(Cl)ccc2F)cc1C(N)=O` [Compound 303, 5-(5-chloro-2-fluorophenylsulfonyl)-2-(2-hydroxy-2-methylpropanamido) thiophene-3-carboxamide], the figures for the negative logarithm of the EC50 (pEC50) at CFTR G551D mutant, at CFTR ΔF508 mutant [1] and on CFTR ΔF508 mutant [3] were 5.78, 7.43 and 8.07, respectively.
The like results for `CN(c1ccc(F)cc1)S(=O)(=O)c1cc(C(N)=O)c(NC(=O)C(C)(C)O)s1` [Compound 304, 5-(N-(4-fluorophenyl)-N-methylsulfamoyl)-2-(2-hydroxy-2-methylpropanamido) thiophene-3-carboxamide] were, in that order, 5.48, 7.11 and 6.96.
`CN(Cc1ccc(F)cc1)S(=O)(=O)c1cc(C(N)=O)c(NC(=O)C(C)(C)O)s1` [Compound 305, 5-(N-(4-fluorobenzyl)-N-methylsulfamoyl)-2-(2-hydroxy-2-methylpropanamido) thiophene-3-carboxamide]: the pEC50 at CFTR G551D mutant was 6.10; at CFTR ΔF508 mutant [1], 7.50; at CFTR ΔF508 mutant [3] it was 7.62.
The like results for `CC(C)(O)C(=O)Nc1sc(S(=O)(=O)N2CCOc3ccccc32)cc1C(N)=O` [Compound 307, 5-(2H-benzo[b][1,4]oxazin-4(3H)-ylsulfonyl)-2-(2-hydroxy-2-methylpropanamido) thiophene-3-carboxamide] were, in that order, 6.10, 7.48 and 7.55.
The like results for `CC(C)(O)C(=O)Nc1sc(S(=O)(=O)c2ccc3c(c2)OC(F)(F)O3)cc1C(N)=O` [Compound 310, 5-(2,2-difluorobenzo[d][1,3]dioxol-5-ylsulfonyl)-2-(2-hydroxy-2-methylpropanamido) thiophene-3-carboxamide] were, in that order, 5.75, 7.37 and 7.18.
The like results for `CC(O)C(=O)Nc1sc(S(=O)(=O)c2ccccc2OC(F)(F)F)cc1C(N)=O` (stereo not shown) [Compound 311, 2-(2-hydroxypropanamido)-5-(2-(trifluoromethoxy)phenylsulfonyl) thiophene-3-carboxamide] were, in that order, 6.22, 7.82 and 8.46.

Source of the values: patent US9382254B2, “Compounds and pharmaceutical compositions thereof for the treatment of cystic fibrosis” (Galapagos NV, priority 2013, dated 2016).
